# Reference: US20130004581A1, “CONTROLLING UPTAKE BY CELLS” (Ramot at Tel-Aviv University Ltd., priority 2010, published 2013)
# Columns and labels:
# HaCaT cells = experiment: Proton induced uptake (PIU) in HaCaT cells, FACS; type: cell-based, human; settings: for extent of PIU of dextran-FITC compared to normal cells: 25 μM added 10 minutes prior, pH 5.2 for 10 minutes, dextran-FITC 70 kDa; for effect of actin cytoskeleton modifier on rate of PIU of dextran-FITC: latrunculin-A 1 μM, cytochalasin-B 10 μM, wortmannin 1 μM, calyculin-A 50 nM, 15 minutes before, pH 5.25 10 minutes, 70 kD dextran-FITC 5 μM
# Protocol: FIG. 6 is a chart showing PIU of molecules different by size and charge, in accordance with some embodiments of the invention. Hacat cultures were exposed to solutions of pH 5.2 or pH 7.4 for 5 minutes period, in the presence of different fluorescence molecules (All at 25 μM concentration). FACS analysis results (FL1, geometrical mean±SD) for the cell cultures exposed to pH 5.2 are presented as fold induction relative to results obtained for cells exposed to pH 7.4. This can be used, in some embodiments of the invention, to assess effect of molecule size and charge on uptake.
# FIGS. 7A-7B are charts showing the comparison of PIU in adherent and suspended HaCaT cells, in accordance with some embodiments of the invention. For FIG. 7A, HaCaT cells were tested either at their adherent state, or following harvest at a suspended state. […] FACS analyses (FL1) in terms of geometrical mean±SD are presented as fold induction relative to the constitutive uptake at physiological pH 7.4. n=9 in 3 independent experiments. For FIG. 7B, HaCaT Cells were cultivated at low, medium or high cell density. […] The cultures were harvested and undergone FACS analyses (FL1) in terms of geometrical mean±SD and are presented as fold induction relative to the constitutive uptake of low density cultures. Statistical significance was tested against the confluent culture, n=9 in 3 independent experiments. In the charts, * indicates a t-test p<0.05; and ** indicates a t-test p<0.01. This can be used, in some embodiments of the invention, to assess effect of cell membrane rigidity and/or tissue structure on uptake.
# FIGS. 12A-12B are a chart and images which show the relative change of PIU by modifiers of actin cytoskeleton organization, in accordance with some embodiments of the invention. […].
# COS 5-7 cells [1] = experiment: Uptake after one minute of electric pulse train (EPT) in three-compartment device, FACS; type: cell-based, African green monkey; settings: in the presence of both 2 mM SAA and 1 mM DHA
# Protocol: Exposure of cells to low-intensity trains of unipolar rectangular voltage pulses was carried in a three-compartment exposure set-up where the anode and cathode were connected to an electric pulse generator (Grass S44 Stimulator). The exposure set-up consisted of a rectangular chamber made from polystyrene, 15 mm long, 10 mm wide, with 0.5 cm^2 area platinum electrodes positioned on the extreme sides (see FIG. 15). The chamber is divided by two porous membranes (PolyEtherSulfon, 0.8 μm pores, 200 μm depth), into three distinct and equal compartments: anode, cathode and center ones. The electric field parameters applied were monitored on line by recording the voltage and the current (by means of a wide band current probe, Pearson) on an oscilloscope. Typically, a cell suspension (1*10^6 cells/ml) is exposed to a train of electric pulses consisting of unipolar rectangular pulses with duration of 180 μs, frequency of 500 Hz for the total time of exposure of one minute.
# Flow cytometry analysis was carried out by FACSort (Becton @ Dickson, San Jose, Calif.), employing a 488-nm argon laser excitation. […] Ten thousand cells were examined for each sample and data were collected in the list mode. The analysis of flow cytometry data was performed using WINMDI 2.9 software (Joe Trotter, The Scripps Research Institute). For each sample the geometrical mean was calculated without including PI stained cells. Cell intensity was determined as fold of induction relative to cells' constitutive uptake.
# COS 5-7 cells [2] = experiment: Intracellular oxidative stress (DCF fluorescence) after exposure to EPT, FACS; type: cell-based, African green monkey; settings: EPT 20V/cm
# From the text: FIG. 18 is a chart of intracellular oxidative stress in the presence of anti-oxidants in the extracellular and the intracellular compartments, in accordance with some embodiments of the invention. The intracellular oxidative stress measured by intracellular DCF fluorescent intensity following cell exposure to electric pulse train, analyzed by FACS (488/530 nm). Results are given as folds of geometrical mean±SD relative to the level of constitutive oxidative stress. Statistical t-test results: 2 mM SAA; p<0.05, 1 mM DHA; p<0.01.
# Harvested cells were incubated with H2DCF-DA (20 μM for 90 minutes 5% CO2 at 37°). Following the loading process the cells were washed once with HBSS before exposure to EPT. H2DCF-DA is a non-fluorescent form of fluorescein, passively permeating into the cell where it is cleaved by cytosolic esterase to H2DCF. It gains its fluorescent properties when oxidized into DCF. DCF intensity was analyzed by FACS using the 530/30 nm channel.
# The intracellular OS level was monitored by H2DCF, a non-fluorescent probe that is oxidized by radical hydroxyls into the fluorescent DCF form. Following the cells pre-loading with H2DCF, OS levels, as monitored by intracellular DCF fluorescence intensity, are elevated only in those cells suspended and exposed to EPT in the anode compartment (20V/cm, 200 mA/cm^2). […]
# [3] = 2 mM added to medium prior to EPT (20V/cm, 200 mA/cm^2)
# Protocol: In order to determine the EPT induced oxidative stress in the extracellular media, TMB was employed, a colorless solution that transforms into blue when oxidized. TMB was added to the media before exposure to EPT. […] Light absorbance was measured using Tecan GENios plate reader at 450 nm. […] In order to moot this possibility, OS was examined in the three-compartment device, monitored by the color conversion of TMB.
# COS 5-7 cells [4] = experiment: Uptake after one minute of chemically induced low pH (HCl added to HBSS suspension), FACS; type: cell-based, African green monkey; settings: 50 mM
# Protocol: The following tables show a connection between pH and current. […] The values in the tables are shown as folds relative to the uptake in cells unexposed to any of the treatments. […] The results are expected to be substantially independent of cell type and molecule used, except for a cell-specific change and a molecule specific change.
# Cells (COS 5-7) were harvested, re-suspended in DMEM (1 mg/ml glucose, 5% FCS), and incubated (37°, 5% CO2) as designated by the experiment. For uploading the cells with either H2DCF-DA (20 μM) or Bis-DHA (1 mM) incubation lasted 90 minutes. When no pre-treatments were required, the cells were kept in the DMEM for 30 minutes. Following incubation, the cells were centrifuged at 400g for 1 min, the solution aspirated, and cells re-suspended in HBSS exposure media.
# Exposure of cells to pulse acidification was through the addition of HCl to the HBSS suspension for 60 seconds, terminated by the addition of a three fold larger volume of DMEM-H.
# Cell suspensions were centrifuged (400g for one minute), their solutions aspirated and they were re-suspended with 0.5 ml DMEM-H supplemented with 10u/ml dextranase (Sigma-Aldrich) for 10 minutes at RT. Cells were centrifuged again; their solution aspirated and they were re-suspended with 0.2 ml DMEM-H. PI (25 μg/ml) as a label for permeabilized cells and tryphan blue (0.01% w/v) as a fluorescence quenching agent for extracellular FITC (36) were added to each sample shortly before analysis
# Flow cytometry analysis was carried out by FACSort (Becton @ Dickson, San Jose, Calif.), employing a 488-nm argon laser excitation. The green fluorescence of FITC was measured via 530/30 nm filter, the red fluorescence of PI was detected via a 585/42 nm filter. […] Ten thousand cells were examined for each sample and data were collected in the list mode. The analysis of flow cytometry data was performed using WINMDI 2.9 software (Joe Trotter, The Scripps Research Institute). For each sample the geometrical mean was calculated without including PI stained cells. Cell intensity was determined as fold of induction relative to cells' constitutive uptake.
# After one minute incubation, cell suspensions were immediately diluted with 3 fold larger volume of cold buffered DMEM to restore pH to a normal pH of 7.5.
compound,measurement,setting,value
N#CC(C#N)=NNc1cccc(Cl)c1 [CCCP],extent of PIU of dextran-FITC compared to normal cells,HaCaT cells,higher
"O=C1O[C@H]([C@@H](O)CO)C(O)=C1O.[Na] [SAA, Sodium ascorbic acid]",effect on EPT induced uptake of dextran-FITC,COS 5-7 cells [1],only a minor decrease
same,decline of intracellular OS (DCF fluorescence),"COS 5-7 cells [2]; 2 mM in external medium, 200 mA/cm^2, anode compartment",66%
same,effect on TMB oxidation during electric exposure,[3],prevented its oxidation
C=C1[C@@H](C)[C@H]2[C@H](Cc3ccccc3)NC(=O)[C@]23OC(=O)/C=C/[C@H](O)CCC[C@@H](C)C/C=C/[C@H]3[C@@H]1O [cytochalasin-B],effect of actin cytoskeleton modifier on rate of PIU of dextran-FITC,HaCaT cells,doubled
lucifer yellow,extent of PIU compared with fluorescein and dextran,"HaCaT cells; pH 5.2 vs pH 7.4, 5 minutes, 25 μM",lesser extent of PIU
"O=C1OC2C(O)COC23OC24OCC(O)C2OC(=O)C4(O)OC13O (stereo not drawn) [DHA, Bis-Dehydroascorbic acid]",effect on EPT induced uptake of dextran-FITC,COS 5-7 cells [1],only a minor decrease
same,effect on EPT induced increase of DCF fluorescent intensity,"COS 5-7 cells [2]; cells pre-loaded (1 mM, 90 minutes), 200 mA/cm^2",sufficient to abolish
[Cl-].[Na+] [NaCl],change in uptake when HCl is replaced by the same concentration of salt (osmolarity control),COS 5-7 cells [4],no change in uptake was observed
O=C(CCc1ccc(O)cc1)c1c(O)cc(O)cc1O [Phloretin],extent of PIU of dextran-FITC compared to normal cells,HaCaT cells,higher
C/C1=C/C(=O)O[C@@H]2C[C@@H](CC[C@H](C)/C=C\C=C\CC1)O[C@@](O)([C@@H]1CSC(=O)N1)C2 [latrunculin-A],effect of actin cytoskeleton modifier on rate of PIU of dextran-FITC,HaCaT cells,only small PIU enhancement
COC[C@@H]([C@H](O)[C@H](O)C(=O)NCC[C@H](C)c1nc(/C=C/C[C@@H]2O[C@]3(C[C@@H](O)[C@@H]2C)O[C@H]([C@H](C[C@H](O)[C@H](C)[C@H](O)[C@H](C)/C=C(C)/C(C)=C/C=C/C(C)=C\C#N)OC)[C@H](OP(=O)(O)O)C3(C)C)co1)N(C)C [calyculin-A],effect of actin cytoskeleton modifier on rate of PIU of dextran-FITC,HaCaT cells,relatively minute impact on PIU increase
